Activity calls are given as the source filed them. The rule behind the calls is not given here. Starred links: 1 amine or outer side, 2 acyl side, 3 side chain; linkers in the order of their positions; H or OH if unused. Positions of bridges follow the written chain, without caps; N, C: chain ends. Non-standard residues stand in square brackets, D forms with d. Residues, ends and D or L forms follow the SMILES beside them. ξ: configuration not given here. mXylylene = c1cc(C[*:1])cc(C[*:2])c1; ξhCys = NC(CCS)C(=O)O
Legend:
[1] = test system: Human immunodeficiency virus 1; assay: (§1) Ratio of EC50 for antiviral activity against HIV1 NL4-3 infected in human MT2 cells or CEMx174 5.25 M7 cells in absence of hCS6ERE to EC50 for antiviral activity against HIV1 NL4-3 infected in human MT2 cells or CEMx174 5.25 M7 cells at 20:1 hCS6ERE to compound ratio; assay type: functional
[2] = test system: Human immunodeficiency virus 1; assay: as §1, with “against T20 resistant” for “against”, “NL4-3 harboring with V38E/N42S mutant” for “NL4-3”, “7000:1” for “20:1”; assay type: functional
[3] = test system: Human immunodeficiency virus 1; assay: (§2) Ratio of EC50 for antiviral activity against T20 resistant HIV1 NL4-3 harboring with V38E/N42T mutant infected in human MT2 cells or CEMx174 5.25 M7 cells in absence of hCS6ERE to EC50 for Antiviral activity against T20 resistant HIV1 NL4-3 harboring with V38E/N42T mutant infected in human MT2 cells or CEMx174 5.25 M7 cells at 300:1 hCS6ERE to compound ratio; assay type: functional
[4] = test system: Human immunodeficiency virus 1; assay: as §2, with “V38E/N42S” for “V38E/N42T”, “antiviral” for “Antiviral”, “14000:1” for “300:1”; assay type: functional
[5] = test system: Human immunodeficiency virus 1; assay: Antiviral activity against HIV1 NL4-3 infected in human MT2 cells or CEMx174 5.25 M7 cells assessed as reduction in p24 Gag protein production at 20:1 hCS6ERE to compound ratio measured at 4 days post-infection by ELISA; assay type: functional, organism-based; details: Human immunodeficiency virus 1, NL4-3, 96 h
[6] = target: Envelope glycoprotein gp160 (Human immunodeficiency virus 1) (UniProt Q6QLK5); assay: Ratio of EC50 for inhibition of HIV1 gp41-induced cell-cell fusion between viral envelope expressing human HL2/3 cells to CD4/CCR5 receptor expressing TZM-bl cells in absence of HP23 to EC50 for inhibition of HIV1 gp41-induced cell-cell fusion between viral envelope expressing human HL2/3 cells to CD4/CCR5 receptor expressing TZM-bl cells at 4:1 ratio of hCS6ERE to compound
Envelope glycoprotein gp160 (Human immunodeficiency virus 1), sequence (Q6QLK5 1-814): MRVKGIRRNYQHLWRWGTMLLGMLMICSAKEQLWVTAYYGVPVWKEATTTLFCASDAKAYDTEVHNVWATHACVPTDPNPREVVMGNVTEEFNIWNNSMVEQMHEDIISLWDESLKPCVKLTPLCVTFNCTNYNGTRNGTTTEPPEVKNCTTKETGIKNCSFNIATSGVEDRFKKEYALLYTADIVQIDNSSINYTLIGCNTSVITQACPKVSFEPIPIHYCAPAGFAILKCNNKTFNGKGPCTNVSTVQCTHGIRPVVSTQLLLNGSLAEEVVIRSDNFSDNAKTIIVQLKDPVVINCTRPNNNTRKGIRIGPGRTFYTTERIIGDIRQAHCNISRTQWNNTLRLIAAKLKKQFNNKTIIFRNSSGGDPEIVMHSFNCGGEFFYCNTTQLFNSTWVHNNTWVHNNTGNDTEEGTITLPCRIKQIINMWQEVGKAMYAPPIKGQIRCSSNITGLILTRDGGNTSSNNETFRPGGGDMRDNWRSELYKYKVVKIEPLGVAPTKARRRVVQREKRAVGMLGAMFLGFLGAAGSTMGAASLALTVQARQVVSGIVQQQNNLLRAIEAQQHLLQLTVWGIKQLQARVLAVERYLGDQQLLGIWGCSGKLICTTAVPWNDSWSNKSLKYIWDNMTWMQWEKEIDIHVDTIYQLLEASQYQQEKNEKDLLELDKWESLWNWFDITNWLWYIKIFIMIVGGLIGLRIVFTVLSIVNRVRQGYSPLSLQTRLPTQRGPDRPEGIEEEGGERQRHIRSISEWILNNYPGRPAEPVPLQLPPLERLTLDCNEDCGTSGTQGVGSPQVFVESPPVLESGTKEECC

[7] = test system: Human immunodeficiency virus 1; assay: as §1, with “X4 tropic HIV-1 subtype-B 3B” for “HIV1 NL4-3”, “12:1 ratio of” for “20:1”, “compound” for “compound ratio”; assay type: functional, HIV-1 group M
[8] = test system: Human immunodeficiency virus 1; assay: Synergistic antiviral activity against R5 tropic HIV-1 subtype-B Bal infected in human MT2 cells or CEMx174 5.25 M7 cells assessed as reduction in p24 Gag protein production by measuring combination index at 6:1 ratio of hCS6ERE to compound measured at 4 days post-infection by ELISA; assay type: functional, HIV-1 group M
[9] = test system: Human immunodeficiency virus 1; assay: (§3) Ratio of EC50 for antiviral activity against T2635 resistant HIV1 LAI harboring Q66R mutant infected in human MT2 cells or CEMx174 5.25 M7 cells in absence of HP23 to antiviral activity against T2635 resistant HIV1 LAI harboring Q66R mutant infected in human MT2 cells or CEMx174 5.25 M7 cells at 12.5:1 ratio of compound to HP23; assay type: functional, M:B_Lai
[10] = test system: Human immunodeficiency virus 1; assay: Synergistic antiviral activity against T2635 resistant HIV1 LAI harboring Q66R mutant infected in human MT2 cells or CEMx174 5.25 M7 cells assessed as reduction in p24 Gag protein production by measuring combination index at 50:1 compound ratio measured at 4 days post infection by ELISA; assay type: functional, M:B_Lai
[11] = test system: Human immunodeficiency virus 1; assay: Antiviral activity against HIV1 NL4-3 infected in human MT2 cells or CEMx174 5.25 M7 cells assessed as reduction in p24 Gag protein production at 10:1 compound to HP23 ratio measured at 4 days post-infection by ELISA; assay type: functional, organism-based; details: Human immunodeficiency virus 1, NL4-3, 96 h
[12] = target: Envelope glycoprotein gp160 (Human immunodeficiency virus 1) (UniProt Q6QLK5); assay: Synergistic inhibition of HIV1 gp41-induced cell-cell fusion between viral envelope expressing human HL2/3 cells to CD4/CCR5 receptor expressing TZM-bl cells assessed as combination index at 4:1 compound to HP23 ratio incubated for 6 hrs by luciferase reporter gene assay
[13] = test system: Human immunodeficiency virus 1; assay: as §3, with “25:1” for “12.5:1”; assay type: functional, M:B_Lai
[14] = test system: Human immunodeficiency virus 1; assay: Synergistic antiviral activity against HIV1 NL4-3 infected in human MT2 cells or CEMx174 5.25 M7 cells assessed as reduction in p24 Gag protein production by measuring combination index at 20:1 compound to HP23 ratio measured at 4 days post-infection by ELISA; assay type: functional
[15] = test system: Human immunodeficiency virus 1; assay: Antiviral activity against T2635 resistant HIV1 LAI harboring Q66R mutant infected in human MT2 cells or CEMx174 5.25 M7 cells assessed as reduction in p24 Gag protein production at 50:1 ratio of compound to HP23 measured at 4 days post infection by ELISA; assay type: functional, organism-based, M:B_Lai
[16] = Cytotoxicity against human TZM-bl cells assessed as reduction in viability after 2 days by XTT assay; assay type: cell-based
[17] = test system: Human immunodeficiency virus 1; assay: Ratio of EC50 for antiviral activity against X4 tropic HIV-1 subtype-B 3B infected in human MT2 cells or CEMx174 5.25 M7 cells in absence of HP23 to EC50 for antiviral activity against X4 tropic HIV-1 subtype-B 3B infected in human MT2 cells or CEMx174 5.25 M7 cells at 24:1 compound to HP23 ratio; assay type: functional, HIV-1 group M
[18] = target: Envelope glycoprotein gp160 (Human immunodeficiency virus 1) (UniProt Q6QLK5); assay: Binding affinity to HIV1 GP41 using GP41 NHR derived N36 peptide assessed as formation of secondary structure at 10 uM incubated for 30 mins by CD spectroscopy
[19] = target: Envelope glycoprotein gp160 (Human immunodeficiency virus 1) (UniProt Q6QLK5); assay: Binding affinity to HIV1 GP41 using GP41 NHR derived N36 peptide assessed as formation of oligomeric complex at 100 uM incubated for 30 mins by Coomassie blue R250 staining based Native-PAGE analysis
[20] = test system: Human immunodeficiency virus 1; assay: as §2, with “V38E/N42S” for “V38E/N42T”, “HP23” for “hCS6ERE”, “antiviral” for “Antiviral”, “14000:1 compound” for “300:1 hCS6ERE”, “HP23” for “compound”; assay type: functional
[21] = test system: Human immunodeficiency virus 1; assay: Synergistic antiviral activity against HIV1 NL4-3 infected in human MT2 cells or CEMx174 5.25 M7 cells assessed as reduction in p24 Gag protein production by measuring combination index at 10:1 compound to HP23 ratio measured at 4 days post-infection by ELISA; assay type: functional
[22] = target: Envelope glycoprotein gp160 (Human immunodeficiency virus 1) (UniProt Q6QLK5); assay: Synergistic inhibition of HIV1 gp41-induced cell-cell fusion between viral envelope expressing human HL2/3 cells to CD4/CCR5 receptor expressing TZM-bl cells assessed as combination index at 1:1 compound to HP23 ratio incubated for 6 hrs by luciferase reporter gene assay
[23] = test system: Human immunodeficiency virus 1; assay: as §3, with “50:1” for “12.5:1”; assay type: functional, M:B_Lai
[24] = test system: Human immunodeficiency virus 1; assay: Synergistic antiviral activity against T2635 resistant HIV1 LAI harboring Q66R mutant infected in human MT2 cells or CEMx174 5.25 M7 cells assessed as reduction in p24 Gag protein production by measuring combination index at 12.5:1 compound ratio measured at 4 days post infection by ELISA; assay type: functional, M:B_Lai

H-EMTWEEWEKKIEEYTKKIEEILK-OH
Ratio EC50 [1]: 4.9 | Ratio EC50 [2]: 3.5 | Ratio EC50 [3]: 2.9 | Ratio EC50 [4]: 7 | EC50 [5]: 0.7 nM | Ratio EC50 [6]: 6.2 | Ratio EC50 [7]: 2.8

CC[C@H](C)[C@H](NC(C)=O)C(=O)N[C@@H](CCC(=O)O)C(=O)N[C@@H](CCC(=O)O)C(=O)N[C@@H](CC(C)C)C(=O)N[C@H](C(=O)NC1CCSCc2cccc(c2)CSCCC(C(=O)N[C@@H](CCC(N)=O)C(=O)N[C@@H](CCC(N)=O)C(=O)N[C@@H](CCCNC(=N)N)C(=O)N[C@@H](CCCCN)C(=O)N[C@@H](CC(N)=O)C(=O)N[C@@H](CCC(=O)O)C(=O)N[C@@H](CCC(=O)O)C(=O)N[C@@H](C)C(=O)N[C@@H](CC(C)C)C(=O)N[C@@H](CCCNC(=N)N)C(=O)N[C@@H](CCC(=O)O)C(=O)N[C@@H](CC(C)C)C(N)=O)NC(=O)[C@H](CCC(N)=O)NC(=O)[C@H](C)NC(=O)[C@H](C)NC1=O)[C@@H](C)CC (some centres undefined) (Ac-IEELI[ξhCys]AAQ[ξhCys]QQRKNEEALREL-NH2; linker 6-10 via mXylylene)
CI [8]: 0.8 | Ratio EC50 [9]: 3.8 | CI [10]: 0.4 | EC50 [11]: 9 nM | CI [12]: 0.6 | Ratio EC50 [13]: 2.2 | CI [14]: 0.8 | EC50 [15]: 26.3 nM | CC50 at 48 h [16]: > 800000 nM | Ratio EC50 [17]: 1.6 | Activity [18]: Active | Activity [19]: Active | Ratio EC50 [20]: 2.2 | CI [21]: 0.7 | CI [22]: 0.9 | Ratio EC50 [23]: 3.3 | CI [24]: 0.7
